# Source: patent US11434227B2, “Broad spectrum antibacterial activity of novel bisbenzimidazoles targeting topoisomerase IA and the synergistic composition of bisbenzimidazole with efflux pump inhibitors against pathogenic bacteria” (Jawaharlal Nehru University (JNU), priority 2016, dated 2022)
# Where two headings read alike, the source gives them in different places.
# What was measured:
# [1] = system: Acinetobacter baumannii (AB387); experiment: Susceptibility (MIC50/MIC90), broth microdilution
# Description: (§1) MICs were determined by the broth microdilution method according to CLSI methods (Clinical and Laboratory Standards Institute, 2005). Inoculants were incubated at 37° C. on cation adjusted Mueller Hinton (MH) Broth for 18 to 24 h. Compound were dissolved in media to 10 doubling dilutions from 128 to 0.125 μg/mL. All the bacterial strains were grown in 96 well plate with low evaporation lid (Falcon, Becton Dickinson) in presence of derivatives of benzimidazoles at 0.125, 0.25, 0.5, 1, 2, 4, 8, 16, 32, 64, 128, 256 μg/mL concentrations. […] Plates were read by Tecan Micro-plate Reader at 600 nm.
# Staphylococcus sp. (976) = experiment: Susceptibility (MIC50/MIC90), broth microdilution
# Description: as §1
# [2] = system: Mycobacterium tuberculosis H37Rv (virulent); experiment: Susceptibility of Mycobacterium tuberculosis strains (MIC90); assay type: cell-based
# E. coli K12 mutant ΔemrA = experiment: Susceptibility of E. coli K12 and mutants (MIC90); settings: Escherichia coli
# Description: as §1
# [3] = system: Pseudomonas aeruginosa (MTCC 366); experiment: Susceptibility (MIC50/MIC90), broth microdilution; settings: MTCC366
# Description: as §1
# [4] = system: Mycobacterium tuberculosis H37Ra (avirulent); experiment: Susceptibility of Mycobacterium tuberculosis strains (MIC90); assay type: cell-based
# Enterococcus sp. (1121) = experiment: Susceptibility (MIC50/MIC90), broth microdilution
# Description: as §1
# Enterococcus sp. (432) = experiment: Susceptibility (MIC50/MIC90), broth microdilution
# Description: as §1
# [5] = system: Klebsiella planticola (K235); experiment: Susceptibility (MIC50/MIC90), broth microdilution
# Description: as §1
# E. coli K12 mutant ΔtolC = experiment: Susceptibility of E. coli K12 and mutants (MIC90); settings: Escherichia coli
# Description: as §1
# [6] = system: Pseudomonas aeruginosa (MTCC1688); experiment: Susceptibility (MIC50/MIC90), broth microdilution
# Description: as §1
# E. coli K12 mutant ΔompC = experiment: Susceptibility of E. coli K12 and mutants (MIC90); settings: Escherichia coli
# Description: as §1
# E. coli K12 = experiment: Susceptibility of E. coli K12 and mutants (MIC90); settings: Escherichia coli
# Description: as §1
# [7] = system: Escherichia coli (ATCC 25922); experiment: Susceptibility (MIC, PAE, MBC), broth microdilution
# Description: as §1
# [8] = system: Salmonella typhimurium (MTCC 1251); experiment: Susceptibility (MIC50/MIC90), broth microdilution; settings: Salmonella enterica
# Description: as §1
# M. tuberculosis = experiment: Effect on virulent and avirulent strains of M. tuberculosis; assay type: cell-based, Mycobacterium tuberculosis
# [9] = system: Acinetobacter baumannii (AB312); experiment: Susceptibility (MIC50/MIC90), broth microdilution
# Description: as §1
# [10] = system: Shigella flexineri (MTCC1457); experiment: Susceptibility (MIC50/MIC90), broth microdilution; assay type: cell-based
# [11] = system: Acinetobacter baumannii (MTCC1920); experiment: Susceptibility (MIC50/MIC90), broth microdilution
# Description: as §1
# [12] = system: Klebsiella planticola (MTCC 2272); experiment: Susceptibility (MIC50/MIC90), broth microdilution; settings: MTCC2272
# Description: as §1
# [13] = system: Salmonella typhimurium (St412); experiment: Susceptibility (MIC50/MIC90), broth microdilution; settings: Salmonella enterica
# Description: as §1
# E. coli K12 mutant ΔacrA = experiment: Susceptibility of E. coli K12 and mutants (MIC90); settings: Escherichia coli
# Description: as §1
# [14] = system: Klebsiella planticola (K1164); experiment: Susceptibility (MIC50/MIC90), broth microdilution
# Description: as §1
# Staphylococcus sp. (982) = experiment: Susceptibility (MIC50/MIC90), broth microdilution
# Description: as §1
# [15] = system: E. coli K12 mutant ΔTopIA; experiment: Susceptibility of E. coli K12 and mutants (MIC90); settings: Escherichia coli
# Description: as §1
# Escherichia coli 385 = experiment: Susceptibility (MIC50/MIC90), broth microdilution
# Description: as §1
# E. coli ATCC 25922 = experiment: Neutropenic thigh infection model
# Description: The neutropenic mice thigh infection model, fully described by. Craig, was used in this study. Female Balb/c mice (6 mice per dosing group) weighing 20-25 g were rendered neutropenic with 2 intraperitoneal injections of cyclophosphamide (150 mg/kg of body weight 4 days prior to bacterial inoculation and 100 mg/kg 1 day before inoculation) 2 h prior to bacterial inoculation. […] Bacteria were injected into the right thigh of each mouse at time zero. […] Neutropenia was defined as an absolute neutrophil count of 500 polymorphonuclear leukocytes/cm^3 of blood. The bacterial suspension was diluted to a concentration of 10^6 CFU/mL with normal saline. Then, 0.1 mL of the bacterial suspension was injected into each posterior thigh muscle 2 h after the second dose of cyclophosphamide was administered. […] Twenty-four hours after drug treatment was begun, the mice were humanely sacrificed. Right thigh muscles from each mouse were aseptically collected, homogenized and serially diluted 1:10 in phosphate buffer saline, and processed for quantitative cultures.
# Enterococcus sp. (1367) = experiment: Susceptibility (MIC50/MIC90), broth microdilution
# Description: as §1
# [16] = system: E. coli K12 mutant ΔTopIB; experiment: Susceptibility of E. coli K12 and mutants (MIC90); settings: Escherichia coli
# Description: as §1
# Escherichia coli 392 = experiment: Susceptibility (MIC50/MIC90), broth microdilution
# Description: as §1
# Enterococcus sp. (2105) = experiment: Susceptibility (MIC50/MIC90), broth microdilution
# Description: as §1
# [17] = system: isogenic efflux deleted strains; experiment: Susceptibility of isogenic efflux deleted strains versus wild type; assay type: cell-based, Escherichia coli; settings: in comparison to wild type strains
# Enterococcus sp.(1150) = experiment: Susceptibility (MIC50/MIC90), broth microdilution
# Description: as §1
# E. coli K12 mutant ΔompF = experiment: Susceptibility of E. coli K12 and mutants (MIC90); settings: Escherichia coli
# Description: as §1
# [18] = system: Pseudomonas aeruginosa (Ps162); experiment: Susceptibility (MIC50/MIC90), broth microdilution
# Description: as §1
# [19] = system: Staphylococcus sp. (1016); experiment: Susceptibility (MIC50/MIC90), broth microdilution
# Description: as §1
# Enterococcus sp. (1365) = experiment: Susceptibility (MIC50/MIC90), broth microdilution
# Description: as §1
# S. aureus 1016 = experiment: Neutropenic thigh infection model; assay type: in vivo, Balb/c mice
# Description: Craig, was used in this study.
# [20] = system: Klebsiella planticola (K589); experiment: Susceptibility (MIC50/MIC90), broth microdilution
# Description: as §1
# [21] = Neutropenic thigh, ATCC 25922, single i.v. bolus, 24 h
compound,measurement,setting,value
"CCCCN1CCN(c2ccc3nc(-c4ccc5[nH]c(-c6ccc(OC)c(OC)c6)nc5c4)[nH]c3c2)CC1 [SP12a, 5-(4-butylpiperazin-1-yl)-2′-(3,4-dimethoxyphenyl)-1H,1′H-2,5′-bibenzo[d]imidazole]",MIC50,[1],3.6 µg/mL
same,MIC90,[1],10.8 µg/mL
same,MIC50,Staphylococcus sp. (976),< 0.25 µg/mL
same,MIC90,Staphylococcus sp. (976),0.4 µg/mL
same,MIC90,[2],14.6 µg/mL
same,MIC90,E. coli K12 mutant ΔemrA,7.9 µg/mL
same,MIC50,[3],< 0.25 µg/mL
same,MIC90,[3],< 0.25 µg/mL
same,MIC90,[4],7.3 µg/mL
same,MIC50,Enterococcus sp. (1121),< 0.25 µg/mL
same,MIC90,Enterococcus sp. (1121),0.88 µg/mL
same,MIC50,Enterococcus sp. (432),> 128 µg/mL
same,MIC90,Enterococcus sp. (432),> 128 µg/mL
same,MIC50,[5],3.1 µg/mL
same,MIC90,[5],25.9 µg/mL
same,MIC90,E. coli K12 mutant ΔtolC,0.7 µg/mL
same,MIC50,[6],128 µg/mL
same,MIC90,[6],128 µg/mL
same,MIC90,E. coli K12 mutant ΔompC,6.7 µg/mL
same,MIC90,E. coli K12,16 µg/mL
same,MIC90,"[7]; ATCC 25922, Table 6",7.3 ± 0.024 µg/mL
same,MIC50,"[7]; Escherichia coli, ATCC25922",3 µg/mL
same,MIC90,"[7]; Escherichia coli, ATCC25922",7.3 µg/mL
same,MIC50,[8],< 0.25 µg/mL
same,MIC90,[8],0.25 µg/mL
same,effect on M. tuberculosis,M. tuberculosis,effective against M. tuberculosis
same,MIC50,[9],4.6 µg/mL
same,MIC90,[9],12.9 µg/mL
same,MIC50,[10],0.24 µg/mL
same,MIC90,[10],0.8 µg/mL
same,MIC50,[11],128 µg/mL
same,MIC90,[11],128 µg/mL
same,MIC50,[12],128 µg/mL
same,MIC90,[12],128 µg/mL
same,MIC50,[13],< 0.25 µg/mL
same,MIC90,[13],0.25 µg/mL
same,MIC90,E. coli K12 mutant ΔacrA,3.4 µg/mL
same,MIC50,[14],> 128 µg/mL
same,MIC90,[14],128 µg/mL
same,MIC50,Staphylococcus sp. (982),0.5 µg/mL
same,MIC90,Staphylococcus sp. (982),1 µg/mL
same,MIC90,[15],3.9 µg/mL
same,MIC50,Escherichia coli 385,3.9 µg/mL
same,MIC90,Escherichia coli 385,6.5 µg/mL
same,Dose at 0.8 log reduction,E. coli ATCC 25922; [21],2 mg/kg bw/day
same,Dose at 3.4 log reduction,E. coli ATCC 25922; [21],4 mg/kg bw/day
same,bacterial load reduction,"E. coli ATCC 25922; balb/c mice neutropenia thigh model, gram negative ATCC25922",significant bacterial load reduction
same,MIC50,Enterococcus sp. (1367),< 0.25 µg/mL
same,MIC90,Enterococcus sp. (1367),< 0.25 µg/mL
same,MIC90,[16],12.8 µg/mL
same,MIC50,Escherichia coli 392,1.5 µg/mL
same,MIC90,Escherichia coli 392,13.7 µg/mL
same,MIC50,Enterococcus sp. (2105),4.32 µg/mL
same,MIC90,Enterococcus sp. (2105),12.2 µg/mL
same,sensitisation of efflux deleted strains,[17],more sensitised
same,MIC50,Enterococcus sp.(1150),< 0.25 µg/mL
same,MIC90,Enterococcus sp.(1150),< 0.25 µg/mL
same,MIC90,E. coli K12 mutant ΔompF,6.5 µg/mL
same,MIC50,[18],5.22 µg/mL
same,MIC90,[18],> 128 µg/mL
same,MIC90,[19],5.7 ± 0.046 µg/mL
same,MIC50,[19]; Staphylococcus,1.2 µg/mL
same,MIC90,[19]; Staphylococcus,5.7 µg/mL
same,MIC50,Enterococcus sp. (1365),< 0.25 µg/mL
same,MIC90,Enterococcus sp. (1365),< 0.25 µg/mL
same,Dose at 1.7 log reduction,"S. aureus 1016; Neutropenic thigh, S. aureus 1016, single i.v. bolus, 24 h",4 mg/kg bw/day
same,bacterial load reduction,"S. aureus 1016; balb/c mice neutropenia thigh model, Gram positive S1016",significant bacterial load reduction
same,MIC50,[20],10.3 µg/mL
same,MIC90,[20],29.4 µg/mL
